Measured values: US20110003820A1, “PYRAZOLOPYRIMIDINES, A PROCESS FOR THEIR PREPARATION AND THEIR USE AS MEDICINE” (MERZ PHARMA GMBH & CO. KGaA, priority 2008, published 2011)

Legend:
[1] = target: T1, transmembrane allosteric modulatory sites of mGluR5 receptors in cortical membranes (Rattus norvegicus, UniProt P31424); test: [3H]-MMPEP binding assay in rat cortical membranes; conditions: 3H-MMPEP radioligand, read-out: mGluR5_M_MPEP_r_CTX_IC50
T1 construct: from tissue; host or cells: cortex of male Sprague-Dawley rats, membrane preparation
Protocol: Binding Assays for the Characterization of mGluR5 Antagonists
Preparation of Rat Cortical Membranes:
Male Sprague-Dawley rats (200-250 g) are decapitated and their brains are removed rapidly. The cortex is dissected and homogenized in 20 volumes of ice-cold 0.32 M sucrose using a glass-Teflon homogenizer. The homogenate is centrifuged at 1000×g for 10 minutes. The pellet is discarded and the supernatant centrifuged at 20,000×g for 20 minutes. The resulting pellet is re-suspended in 20 volumes of distilled water and centrifuged for 20 minutes at 8000×g. Then the supernatant and the buffy coat are centrifuged at 48,000×g for 20 minutes in the presence of 50 mM Tris-HCl, pH 8.0. The pellet is then re-suspended and centrifuged two to three more times at 48,000×g for 20 minutes in the presence of 50 mM Tris-HCl, pH 8.0. All centrifugation steps are carried out at 4° C. After resuspension in 5 volumes of 50 mM Tris-HCl, pH 8.0 the membrane suspension is frozen rapidly at −80° C.
On the day of assay the membranes are thawed and washed four times by resuspension in 50 mM Tris-HCl, pH 8.0 and centrifugation at 48,000×g for 20 minutes and finally re-suspended in 50 mM Tris-HCl, pH 7.4. The amount of protein in the final membrane preparation (500-700 μg/ml) is determined according to the method of Lowry (Lowry O. H. et al. 1951. J. Biol. Chem. 193, 256-275).
Incubations are started by adding[^3H]-MPEP (50.2 Ci/mmol, 5 nM, Tocris, GB) to vials with 125-250 μg protein (total volume 0.25 ml) and various concentrations of the agents.
Alternatively, assays are performed with [^3H]-MMPEP (2-(3-methoxyphenylethynyl)-6-methylpyridine hydrochloride) as radioligand. The incubations are continued at room temperature for 60 minutes (equilibrium is achieved under the conditions used). […] Incubations are terminated using a Millipore filter system. The samples are rinsed twice with 4 ml of ice-cold assay buffer over glass fibre filters (Schleicher & Schuell, Germany) under a constant vacuum. Following separation and rinse, the filters are placed into scintillation liquid (5 ml Ultima Gold, Perkin Elmer, Germany) and radioactivity retained on the filters is determined with a conventional liquid scintillation counter (Can berra Packard, Germany).

mGluR5 receptors = target: T2, mGluR5 receptors (Rattus norvegicus, UniProt P31424); test: Cytosolic Calcium studies with astrocytes (astrocyte culture test, FLIPR); assay type: cell-based; conditions: primary rat cortical astrocytes; L-quisqualate 100 nM; read-out: mGluR5_FLIPRr_rpA IC50
T2 construct: Primary astrocyte cultures are prepared from cortices of newborn rats; endogenous in cells; host or cells: primary cortical astrocytes of Sprague-Dawley rat pups (2-4 d old)
Protocol: Primary astrocyte cultures are prepared from cortices of newborn rats as described by Booher and Sensenbrenner (1972, Neurobiology 2(3):97-105). Briefly, Sprague-Dawley rat pups (2-4 d old) are decapitated and neocortices are dissected, disintegrated with a nylon filter (pore size 80 μm) and carefully triturated. The cell suspension is plated on poly-D-lysine pre-coated flasks (Costar, Netherlands) and cultivated in Dulbecco's Modified Eagle's Medium (DMEM, Invitrogen, Germany) supplemented with 10% foetal calf serum (FCS, Sigma, Germany), 4 mM glutamine and 50 μg/ml gentamycin (both Biochrom, Germany) at 37° C. in a humidified atmosphere of 5% CO2/95% air for 7 d with exchanging the medium at day 2 and 6.
After 7 days in vitro (DIV), cells are shaken overnight at 250 rpm to remove oligodendrocytes and microglia. The next day, astrocytes are rinsed twice with CMF-PBS (calcium- and magnesium-free phosphate buffered saline, Biochrom, Germany), trypsinized and subplated on poly-D-lysine pre-coated 96-well plates (Greiner, Germany) at a density of 40,000 cells/well. 24 h after establishing the secondary culture the astrocytes are rinsed with PBS^++ (phosphate buffered saline, Biochrom, Germany) and fed with astrocyte-defined medium (ADM) consisting of DMEM containing 1×G5-supplement (Invitrogen, Germany), 0.5 μg/ml heparan sulfate, and 1.5 μg/ml fibronectin (both Sigma, Germany) (Miller et al., (1993) Brain Res. 618(1):175-8). 3 d later the medium is exchanged and the cells incubated for another 2-3 d, so that at the time of experiments astrocytes are 14-15 DIV.
Cytosolic Calcium Studies with Astrocytes:
The increase of cytosolic calcium after stimulation with the mGluR5 agonist L-quisqualate is measured using a fluorometric imaging plate reader (FLIPR) and the Ca-Kit (both Molecular Devices). Prior to addition of agonist or antagonist the medium is aspirated and cells are loaded for 2 h at RT with 150 μl of loading buffer consisting of Ca-sensitive dye reconstituted in sodium chloride (123 mM), potassium chloride (5.4 mM), magnesium chloride (0.8 mM), calcium chloride (1.8 mM), D-glucose (15 mM), and HEPES (20 mM), pH 7.3. Subsequently, plates are transferred to FLIPR to detect calcium increase with the addition of L-quisqualate (100 nM) measured as relative fluorescence units (RFU). If antagonists are tested, these compounds are pre-incubated for 10 minutes at RT before addition of the respective agonist.
(§1) The fluorescence signal increase after addition of agonist reflects the increase of cytosolic calcium. Inconsistencies in the amount of cells per well are normalised by using the spatial uniformity correction of the FLIPR software. The mean of replicated temporal data (n=3-5) is calculated and used for graphical representation. For the evaluation of the pharmacology, the calcium changes in response to different concentrations of agonist or antagonist are determined using a maximum minus minimum (MaxMin) calculation.
(§2) All responses (RFU-values) are determined as percentage of control (=maximum response). EC50 and IC50 are calculated according the logistic equation using GraFit 5.0 (Erithacus Software, GB) or Prism 4.0 (GraphPad Software, USA). The compounds of the present invention have a potency (IC50) within a range of about […].

[2] = target: T3, metabotropic glutamate receptor (mGluR5) (Homo sapiens, UniProt P41594); test: Cytosolic Calcium studies with stably transfected cells (FLIPR, CHO-K1); assay type: cell-based; design: expressed in transfected cells; host or cells: CHO-K1 cells, IPTG-inducible expression; conditions: CHO-K1 cells expressing human mGluR5; agonist L-quisqualic acid at ~80% of maximal signal; read-out: mGluR5_FLIPR_h_CHO_NAM IC50
Protocol: Functional Assays of mGluR5 Receptors
Cytosolic Calcium studies with stably transfected cells:
Chinese hamster ovary cells (CHO-K1 cells), stably transfected for inducible expression of a human metabotropic glutamate receptor mGluR5, are seeded into black clear bottom 96 well plates at a density of 35.000 cells per well. The standard growth medium used (Dulbecco's modified Eagle Medium, DMEM plus L-proline) contains the appropriate inducer isopropyl-β-D-thiogalactopyranosid (IPTG) to achieve optimal receptor expression. One day after seeding the growth medium is exchanged for reconstituted Ca-Kit (Molecular Devices, USA) and incubated for one hour. Ca-Kit is reconstituted in an assay buffer containing 20 mM HEPES pH 7.4, glutamic-pyruvate transaminase, pyridoxal phosphate and sodium pyruvate in Hank's balanced salt solution (HBBS). Agonistic compounds to the receptor elicit increases in cytosolic calcium which can be measured as increases in fluorescence signals by use of a fluorescence imaging plate reader (Molecular Devices).
as §1, §2

[3] = target: T3, metabotropic glutamate receptor (mGluR5); test: Activity as mGluR5 modulator of prior-art compounds (test not described); conditions: result in words

T2 sequence (P31424 21-1203): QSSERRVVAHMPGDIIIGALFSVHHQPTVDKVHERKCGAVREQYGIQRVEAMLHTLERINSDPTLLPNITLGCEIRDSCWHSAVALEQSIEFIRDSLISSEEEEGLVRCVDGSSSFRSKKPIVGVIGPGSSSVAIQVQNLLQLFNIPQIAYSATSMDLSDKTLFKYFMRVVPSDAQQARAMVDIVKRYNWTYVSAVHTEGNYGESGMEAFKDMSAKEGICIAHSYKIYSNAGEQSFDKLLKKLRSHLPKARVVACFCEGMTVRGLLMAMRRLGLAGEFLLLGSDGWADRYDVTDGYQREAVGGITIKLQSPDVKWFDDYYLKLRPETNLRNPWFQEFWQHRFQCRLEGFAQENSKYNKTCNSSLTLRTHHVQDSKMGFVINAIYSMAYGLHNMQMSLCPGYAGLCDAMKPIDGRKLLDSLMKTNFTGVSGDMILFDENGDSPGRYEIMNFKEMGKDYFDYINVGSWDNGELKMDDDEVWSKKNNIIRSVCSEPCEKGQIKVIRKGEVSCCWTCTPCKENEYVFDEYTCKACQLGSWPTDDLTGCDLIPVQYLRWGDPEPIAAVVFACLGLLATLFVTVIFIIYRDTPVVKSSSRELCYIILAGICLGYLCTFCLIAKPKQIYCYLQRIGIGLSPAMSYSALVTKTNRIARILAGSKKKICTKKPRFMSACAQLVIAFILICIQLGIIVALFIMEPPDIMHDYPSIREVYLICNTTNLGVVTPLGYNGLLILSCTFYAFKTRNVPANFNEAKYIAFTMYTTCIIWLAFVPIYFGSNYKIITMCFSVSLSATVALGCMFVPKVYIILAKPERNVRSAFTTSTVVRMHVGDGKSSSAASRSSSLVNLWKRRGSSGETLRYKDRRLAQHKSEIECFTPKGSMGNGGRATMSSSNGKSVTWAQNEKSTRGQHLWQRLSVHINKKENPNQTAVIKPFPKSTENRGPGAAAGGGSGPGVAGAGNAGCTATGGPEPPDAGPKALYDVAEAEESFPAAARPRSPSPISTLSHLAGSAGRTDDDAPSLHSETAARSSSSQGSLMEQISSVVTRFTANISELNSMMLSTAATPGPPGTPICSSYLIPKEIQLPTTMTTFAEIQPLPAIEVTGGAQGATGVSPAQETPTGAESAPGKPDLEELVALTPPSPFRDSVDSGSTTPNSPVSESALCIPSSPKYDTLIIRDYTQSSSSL
T1 sequence (P31424 21-1203): as above
T3 sequence (P41594 21-1212): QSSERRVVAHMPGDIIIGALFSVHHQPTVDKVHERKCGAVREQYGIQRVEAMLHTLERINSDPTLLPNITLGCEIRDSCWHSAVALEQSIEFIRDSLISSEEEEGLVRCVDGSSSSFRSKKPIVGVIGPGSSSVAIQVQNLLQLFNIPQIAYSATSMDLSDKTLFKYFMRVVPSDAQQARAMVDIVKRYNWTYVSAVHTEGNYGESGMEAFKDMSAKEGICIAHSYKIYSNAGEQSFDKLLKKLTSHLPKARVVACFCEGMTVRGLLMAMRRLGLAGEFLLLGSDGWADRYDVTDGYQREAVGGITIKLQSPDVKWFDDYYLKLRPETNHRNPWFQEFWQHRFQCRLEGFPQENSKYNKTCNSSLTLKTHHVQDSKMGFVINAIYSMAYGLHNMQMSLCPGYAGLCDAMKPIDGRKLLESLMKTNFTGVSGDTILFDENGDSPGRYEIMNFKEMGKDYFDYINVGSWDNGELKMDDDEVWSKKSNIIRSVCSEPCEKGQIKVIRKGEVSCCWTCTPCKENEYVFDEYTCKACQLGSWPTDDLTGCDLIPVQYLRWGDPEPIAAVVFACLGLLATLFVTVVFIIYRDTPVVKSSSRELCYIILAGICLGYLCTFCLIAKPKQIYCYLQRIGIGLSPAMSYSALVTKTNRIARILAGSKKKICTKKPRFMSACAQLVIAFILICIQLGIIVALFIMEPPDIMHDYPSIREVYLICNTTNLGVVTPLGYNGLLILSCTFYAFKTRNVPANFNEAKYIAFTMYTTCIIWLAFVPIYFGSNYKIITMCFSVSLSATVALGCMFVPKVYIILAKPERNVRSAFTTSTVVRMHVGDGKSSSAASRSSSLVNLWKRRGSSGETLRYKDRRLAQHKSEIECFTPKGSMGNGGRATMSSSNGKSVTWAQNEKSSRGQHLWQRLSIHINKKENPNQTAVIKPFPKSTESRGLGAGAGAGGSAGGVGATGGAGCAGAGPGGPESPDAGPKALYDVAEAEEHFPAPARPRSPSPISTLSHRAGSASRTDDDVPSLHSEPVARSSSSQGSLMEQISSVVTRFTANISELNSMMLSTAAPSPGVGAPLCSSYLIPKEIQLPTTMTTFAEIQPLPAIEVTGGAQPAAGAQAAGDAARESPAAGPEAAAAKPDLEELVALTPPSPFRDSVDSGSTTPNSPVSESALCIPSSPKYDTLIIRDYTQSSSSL

| Structure (SMILES) | IC50 [1] | IC50 (mGluR5 receptors) | IC50 [2] | activity as metabotropic glutamate receptor (mGluR5) modulator [3] | selectivity [3] |
| --- | --- | --- | --- | --- | --- |
| Cc1ccc2n1CCN(C(=O)c1cc3ncc(Br)cn3n1)[C@@H]2C [(R)-(6-Bromo-pyrazolo[1,5-a]pyrimidin-2-yl)-(1,6-dimethyl-3,4-dihydro-1H-pyrrolo[1,2-a]pyrazin-2-yl)-methanone] | 74 nM | 34.3 nM | 118 nM |  |  |
| C[C@@H]1c2ccc(Cl)n2CCN1C(=O)c1cc2ncc(Br)cn2n1 [(R)-(6-Bromo-pyrazolo[1,5-a]pyrimidin-2-yl)-(6-chloro-1-methyl-3,4-dihydro-1H-pyrrolo[1,2-a]pyrazin-2-yl)-methanone] |  | 7.8 nM | 24.5 nM |  |  |
| Cc1ccc2n1CCN(C(=O)c1cc3ncc(Cl)cn3n1)C2C (stereo not drawn) [Example 5, (6-Chloro-pyrazolo[1,5-a]pyrimidin-2-yl)-(1,6-dimethyl-3,4-dihydro-1H-pyrrolo[1,2-a]pyrazin-2-yl)-methanone] | 274 nM | 87.3 nM | 327 nM |  |  |
| Cc1ccc2n1CCN(C(=O)c1cc3ncc(Br)cn3n1)C2C (stereo not drawn) [Example 7, (6-Bromo-pyrazolo[1,5-a]pyrimidin-2-yl)-(1,6-dimethyl-3,4-dihydro-1H-pyrrolo[1,2-a]pyrazin-2-yl)-methanone] | 219 nM | 50 nM | 222 nM |  |  |
| CC1c2ccc(Cl)n2CCN1C(=O)c1cc2ncc(Cl)cn2n1 (stereo not drawn) [Example 29, (6-Chloro-1-methyl-3,4-dihydro-1H-pyrrolo[1,2-a]pyrazin-2-yl)-(6-chloro-pyrazolo[1,5-a]pyrimidin-2-yl)-methanone] | 42 nM | 21.9 nM | 91 nM |  |  |
| CC1c2ccc(Cl)n2CCN1C(=O)c1cc2ncc(Br)cn2n1 (stereo not drawn) [Example 31, (6-Chloro-1-methyl-3,4-dihydro-1H-pyrrolo[1,2-a]pyrazin-2-yl)-(6-bromo-pyrazolo[1,5-a]pyrimidin-2-yl)-methanone] | 44.5 nM | 22.5 nM | 84.4 nM |  |  |
| CC1c2ccc(Br)n2CCN1C(=O)c1cc2ncc(Cl)cn2n1 (stereo not drawn) [Example 37, (6-Bromo-1-methyl-3,4-dihydro-1H-pyrrolo[1,2-a]pyrazin-2-yl)-(6-chloro-pyrazolo[1,5-a]pyrimidin-2-yl)-methanone] | 73 nM | 17 nM | 34.2 nM |  |  |
| CC1c2ccc(Br)n2CCN1C(=O)c1cc2ncc(Br)cn2n1 (stereo not drawn) [Example 39, (6-Bromo-1-methyl-3,4-dihydro-1H-pyrrolo[1,2-a]pyrazin-2-yl)-(6-bromo-pyrazolo[1,5-a]pyrimidin-2-yl)-methanone] | 54.9 nM | 15 nM | 74.5 nM |  |  |
| CN1c2ccccc2CCN1C(=O)c1cc2ncc(Cl)cn2n1 [Example 181, (6-Chloro-pyrazolo[1,5-a]pyrimidin-2-yl)-(1-methyl-3,4-dihydro-1H-cinnolin-2-yl)-methanone] | 247 nM | 82.3 nM | 166 nM |  |  |
| CN1c2ccccc2CCN1C(=O)c1cc2ncc(Br)cn2n1 [Example 182, (6-Bromo-pyrazolo[1,5-a]pyrimidin-2-yl)-(1-methyl-3,4-dihydro-1H-cinnolin-2-yl)-methanone] | 281 nM | 63.7 nM | 189 nM |  |  |
| O=C(c1cc2ncc(Br)cn2n1)N1CCCCC1 [Example B308, (6-Bromopyrazolo[1,5-a]pyrimidin-2-yl)-piperidin-1-yl-methanone] |  |  |  | no particular activity |  |
| O=C(c1cc2ncc(Br)cn2n1)N1CCOCC1 [Example B310, (6-Bromopyrazolo[1,5-a]pyrimidin-2-yl)-morpholin-4-yl-methanone] |  |  |  | no particular activity |  |
| O=C(c1cc2ncc(Br)cn2n1)N1CCc2ccccc2C1 [M, (6-Bromo-pyrazolo[1,5-a]pyrimidin-2-yl)-(1,2,3,4-tetrahydro-isoquinolin-2-yl)-methanone] |  |  |  | only a limited activity | not selective |
